Publication PMC8231556, “Inhibiting Endothelial Cell Function in Normal and Tumor Angiogenesis Using BMP Type I Receptor Macrocyclic Kinase Inhibitors” (Cancers, 2021)

Legend:
Test in all cases: radiometric kinase profiling (33 PanQinase)
Format in all cases: biochemical
GSK3B = target: T1, GSK3B (Homo sapiens, UniProt P49841); conditions: read-out: Inhibitory effect (%) GSK3B
T1 construct: purchased ProQinase (33PanQinase Activity Assay)
Summary of the method: (§1)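 Enzyme/substrate mixes were incubated with [γ-33P]-ATP and compound (added as a 0.1 μM solution in 10% DMSO) at 30 °C for 60 min, then stopped with H3PO4 and washed with NaCl. 33P incorporation was scintillation-counted, and residual activity (%) was normalized to untreated control and background.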

BTK = target: T2, BTK (Homo sapiens, UniProt Q06187); conditions: read-out: Inhibitory effect (%) BTK
T2 construct: purchased Proqinase, Germany
Summary of the method: as §1

MAP3K8 = target: T3, MAP3K8 (Homo sapiens, UniProt P41279); conditions: read-out: Inhibitory effect (%) MAP3K8
T3 construct: purchased ProQinase (33PanQinase Activity Assay)
T3 sequence (P41279 whole entry): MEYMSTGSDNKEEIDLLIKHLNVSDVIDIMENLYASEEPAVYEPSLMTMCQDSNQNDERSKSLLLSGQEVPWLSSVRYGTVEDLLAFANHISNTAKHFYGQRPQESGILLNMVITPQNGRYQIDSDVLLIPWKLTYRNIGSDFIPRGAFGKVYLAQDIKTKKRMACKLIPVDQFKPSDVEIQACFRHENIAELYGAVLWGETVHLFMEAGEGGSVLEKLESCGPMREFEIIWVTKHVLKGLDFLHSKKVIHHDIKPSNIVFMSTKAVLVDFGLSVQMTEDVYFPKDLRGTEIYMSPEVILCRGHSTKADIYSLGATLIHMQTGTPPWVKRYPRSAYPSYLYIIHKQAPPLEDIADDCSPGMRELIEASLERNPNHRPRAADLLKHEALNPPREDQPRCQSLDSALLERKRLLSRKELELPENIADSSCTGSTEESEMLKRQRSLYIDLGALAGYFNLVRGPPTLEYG
Summary of the method: as §1

CDK8_cyclinC = target: T4, CDK8_cyclinC (Homo sapiens, UniProt P49336); conditions: read-out: Inhibitory effect (%) CDK8_cyclinC
T4 construct: purchased Proqinase, Germany
T4 sequence (P49336 whole entry): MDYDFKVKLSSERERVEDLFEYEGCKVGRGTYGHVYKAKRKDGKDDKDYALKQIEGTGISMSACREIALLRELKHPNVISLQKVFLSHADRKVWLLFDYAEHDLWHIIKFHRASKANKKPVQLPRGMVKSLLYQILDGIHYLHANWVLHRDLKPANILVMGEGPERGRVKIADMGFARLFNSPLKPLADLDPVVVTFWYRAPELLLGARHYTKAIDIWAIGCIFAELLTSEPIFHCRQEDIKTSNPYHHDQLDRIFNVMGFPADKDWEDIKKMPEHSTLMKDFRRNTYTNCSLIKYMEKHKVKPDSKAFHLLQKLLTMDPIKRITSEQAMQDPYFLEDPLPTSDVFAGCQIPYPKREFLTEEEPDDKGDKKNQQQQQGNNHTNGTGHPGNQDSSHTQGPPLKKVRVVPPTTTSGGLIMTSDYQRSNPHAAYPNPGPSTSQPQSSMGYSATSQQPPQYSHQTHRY
T4 sequence (P24863 whole entry partner): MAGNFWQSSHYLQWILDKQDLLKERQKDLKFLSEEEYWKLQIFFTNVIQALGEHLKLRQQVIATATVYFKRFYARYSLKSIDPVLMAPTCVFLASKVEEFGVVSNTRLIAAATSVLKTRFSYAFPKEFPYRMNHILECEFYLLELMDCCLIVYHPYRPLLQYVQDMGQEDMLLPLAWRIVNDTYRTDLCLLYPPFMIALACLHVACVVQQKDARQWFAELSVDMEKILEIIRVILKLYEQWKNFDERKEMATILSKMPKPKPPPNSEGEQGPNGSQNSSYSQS
Summary of the method: as §1

EGFR = target: T5, EGFR (Homo sapiens, UniProt P00533); conditions: read-out: Inhibitory effect (%) EGFR
T5 construct: purchased Proqinase, Germany
T5 sequence (P00533 25-1210): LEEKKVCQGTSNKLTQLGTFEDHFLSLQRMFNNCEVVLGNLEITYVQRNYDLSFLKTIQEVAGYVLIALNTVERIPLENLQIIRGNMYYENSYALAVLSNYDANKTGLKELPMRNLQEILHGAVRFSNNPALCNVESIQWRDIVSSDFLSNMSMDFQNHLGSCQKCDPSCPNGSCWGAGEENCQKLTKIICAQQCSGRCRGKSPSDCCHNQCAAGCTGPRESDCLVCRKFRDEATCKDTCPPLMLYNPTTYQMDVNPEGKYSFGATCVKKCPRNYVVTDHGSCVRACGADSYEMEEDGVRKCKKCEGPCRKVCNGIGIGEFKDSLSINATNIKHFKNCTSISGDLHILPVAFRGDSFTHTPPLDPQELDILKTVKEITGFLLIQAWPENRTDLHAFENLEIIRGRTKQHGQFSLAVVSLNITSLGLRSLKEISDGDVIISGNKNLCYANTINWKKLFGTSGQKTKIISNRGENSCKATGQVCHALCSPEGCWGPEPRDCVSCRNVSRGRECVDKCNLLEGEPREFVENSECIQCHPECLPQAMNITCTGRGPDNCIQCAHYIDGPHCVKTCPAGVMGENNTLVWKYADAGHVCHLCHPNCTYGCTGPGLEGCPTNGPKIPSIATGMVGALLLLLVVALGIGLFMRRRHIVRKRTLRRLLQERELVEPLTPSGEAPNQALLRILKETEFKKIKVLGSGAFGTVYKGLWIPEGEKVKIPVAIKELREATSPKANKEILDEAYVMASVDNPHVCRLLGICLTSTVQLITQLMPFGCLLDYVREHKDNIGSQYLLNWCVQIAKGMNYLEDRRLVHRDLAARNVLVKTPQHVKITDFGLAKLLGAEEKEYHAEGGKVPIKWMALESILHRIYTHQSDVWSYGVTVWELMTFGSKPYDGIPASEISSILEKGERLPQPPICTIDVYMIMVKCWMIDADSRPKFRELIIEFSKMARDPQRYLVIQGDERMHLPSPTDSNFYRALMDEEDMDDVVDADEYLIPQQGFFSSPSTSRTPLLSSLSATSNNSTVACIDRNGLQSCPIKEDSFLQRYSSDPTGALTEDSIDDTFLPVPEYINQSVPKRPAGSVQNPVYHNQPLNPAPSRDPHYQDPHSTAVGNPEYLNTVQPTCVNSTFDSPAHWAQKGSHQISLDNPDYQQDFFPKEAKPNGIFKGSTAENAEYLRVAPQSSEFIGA
Summary of the method: as §1

LIMK1 = target: T6, LIMK1 (Homo sapiens, UniProt P53667); conditions: read-out: Inhibitory effect (%) LIMK1
T6 construct: purchased ProQinase (33PanQinase Activity Assay)
T6 sequence (P53667 whole entry): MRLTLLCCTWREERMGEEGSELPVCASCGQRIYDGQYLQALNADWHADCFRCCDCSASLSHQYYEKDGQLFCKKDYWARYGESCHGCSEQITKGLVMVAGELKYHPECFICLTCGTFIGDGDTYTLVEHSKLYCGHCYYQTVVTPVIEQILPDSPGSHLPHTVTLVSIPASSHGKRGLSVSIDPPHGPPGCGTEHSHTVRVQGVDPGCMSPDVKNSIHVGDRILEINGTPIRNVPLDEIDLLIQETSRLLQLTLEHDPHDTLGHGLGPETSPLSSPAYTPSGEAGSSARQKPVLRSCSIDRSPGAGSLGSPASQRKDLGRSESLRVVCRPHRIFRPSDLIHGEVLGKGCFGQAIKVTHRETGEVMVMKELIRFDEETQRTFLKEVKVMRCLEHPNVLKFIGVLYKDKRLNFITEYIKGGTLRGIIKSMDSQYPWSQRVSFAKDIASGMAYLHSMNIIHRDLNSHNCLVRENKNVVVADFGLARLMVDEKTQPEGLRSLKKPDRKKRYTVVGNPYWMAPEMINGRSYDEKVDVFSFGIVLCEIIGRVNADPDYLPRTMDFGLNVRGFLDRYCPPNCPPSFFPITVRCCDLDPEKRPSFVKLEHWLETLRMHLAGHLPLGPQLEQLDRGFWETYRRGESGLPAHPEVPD
Summary of the method: as §1

PAK2 = target: T7, PAK2 (Homo sapiens, UniProt Q13177); conditions: read-out: Inhibitory effect (%) PAK2
T7 construct: purchased ProQinase (33PanQinase Activity Assay)
T7 sequence (Q13177 whole entry): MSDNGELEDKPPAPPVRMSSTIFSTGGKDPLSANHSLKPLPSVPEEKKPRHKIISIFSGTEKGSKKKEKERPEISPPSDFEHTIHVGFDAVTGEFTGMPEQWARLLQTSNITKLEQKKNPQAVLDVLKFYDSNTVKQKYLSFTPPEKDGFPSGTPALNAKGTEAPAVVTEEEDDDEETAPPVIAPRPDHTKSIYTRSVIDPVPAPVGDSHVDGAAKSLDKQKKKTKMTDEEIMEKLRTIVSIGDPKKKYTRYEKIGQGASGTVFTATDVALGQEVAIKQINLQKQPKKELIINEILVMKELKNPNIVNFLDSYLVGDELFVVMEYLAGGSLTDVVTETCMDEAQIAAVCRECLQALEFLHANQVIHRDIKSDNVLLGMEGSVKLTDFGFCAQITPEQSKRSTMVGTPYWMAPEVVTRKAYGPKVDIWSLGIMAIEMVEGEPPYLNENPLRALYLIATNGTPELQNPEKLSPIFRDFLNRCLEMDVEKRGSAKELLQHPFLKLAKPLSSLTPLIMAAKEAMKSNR
Summary of the method: as §1

SGK3 = target: T8, SGK3 (Homo sapiens, UniProt Q96BR1); conditions: read-out: Inhibitory effect (%) SGK3
T8 construct: purchased ProQinase (33PanQinase Activity Assay)
T8 sequence (Q96BR1 1-496): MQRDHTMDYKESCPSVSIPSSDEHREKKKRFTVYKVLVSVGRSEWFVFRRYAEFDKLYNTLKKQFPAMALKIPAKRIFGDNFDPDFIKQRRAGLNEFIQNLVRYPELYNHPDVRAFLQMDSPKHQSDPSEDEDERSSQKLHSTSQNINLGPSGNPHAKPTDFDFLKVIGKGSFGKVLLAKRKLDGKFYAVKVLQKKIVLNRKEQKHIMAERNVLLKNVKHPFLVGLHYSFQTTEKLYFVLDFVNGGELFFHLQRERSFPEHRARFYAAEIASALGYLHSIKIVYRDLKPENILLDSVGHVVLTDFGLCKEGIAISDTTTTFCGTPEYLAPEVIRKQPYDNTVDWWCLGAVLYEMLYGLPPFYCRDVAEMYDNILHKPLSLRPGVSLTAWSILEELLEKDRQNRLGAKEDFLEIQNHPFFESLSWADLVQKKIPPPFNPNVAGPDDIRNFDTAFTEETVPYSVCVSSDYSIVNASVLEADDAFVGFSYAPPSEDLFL
Summary of the method: as §1

DCLK2 = target: T9, DCLK2 (Homo sapiens, UniProt Q8N568); conditions: read-out: Inhibitory effect (%) DCLK2
T9 construct: purchased Proqinase, Germany
T9 sequence (Q8N568 1-766): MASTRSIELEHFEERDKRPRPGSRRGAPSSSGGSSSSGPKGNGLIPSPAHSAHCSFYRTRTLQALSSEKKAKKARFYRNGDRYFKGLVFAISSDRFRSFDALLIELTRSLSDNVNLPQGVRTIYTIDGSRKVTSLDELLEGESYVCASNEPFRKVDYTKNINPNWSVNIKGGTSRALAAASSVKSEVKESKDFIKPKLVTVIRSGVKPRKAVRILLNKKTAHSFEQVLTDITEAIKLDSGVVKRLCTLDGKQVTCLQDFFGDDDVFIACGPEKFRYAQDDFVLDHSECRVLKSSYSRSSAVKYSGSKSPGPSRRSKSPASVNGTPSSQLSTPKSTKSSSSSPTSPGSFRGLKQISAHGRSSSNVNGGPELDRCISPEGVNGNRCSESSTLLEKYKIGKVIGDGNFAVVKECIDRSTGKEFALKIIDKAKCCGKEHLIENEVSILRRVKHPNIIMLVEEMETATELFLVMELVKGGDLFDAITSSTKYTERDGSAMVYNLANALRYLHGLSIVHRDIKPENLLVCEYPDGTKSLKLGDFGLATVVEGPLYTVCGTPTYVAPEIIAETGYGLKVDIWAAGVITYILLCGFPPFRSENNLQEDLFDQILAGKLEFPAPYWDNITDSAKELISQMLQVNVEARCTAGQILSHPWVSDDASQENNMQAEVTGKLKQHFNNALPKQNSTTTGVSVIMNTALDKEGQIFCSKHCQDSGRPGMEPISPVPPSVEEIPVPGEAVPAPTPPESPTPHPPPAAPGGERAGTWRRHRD
Summary of the method: as §1

CDK1_cyclinA2 = target: T10, CDK1_cyclinA2 (Homo sapiens, UniProt P06493); conditions: read-out: Inhibitory effect (%) CDK1_cyclinA2
T10 construct: purchased Proqinase, Germany
Summary of the method: as §1

PDGFRA = target: T11, PDGFRA (Homo sapiens, UniProt P16234); conditions: read-out: Inhibitory effect (%) PDGFRA
T11 construct: purchased ProQinase (33PanQinase Activity Assay)
Summary of the method: as §1

EPHA2 = target: T12, EPHA2 (Homo sapiens, UniProt P29317); conditions: read-out: Inhibitory effect (%) EPHA2
T12 construct: purchased Proqinase, Germany
T12 sequence (P29317 24-976): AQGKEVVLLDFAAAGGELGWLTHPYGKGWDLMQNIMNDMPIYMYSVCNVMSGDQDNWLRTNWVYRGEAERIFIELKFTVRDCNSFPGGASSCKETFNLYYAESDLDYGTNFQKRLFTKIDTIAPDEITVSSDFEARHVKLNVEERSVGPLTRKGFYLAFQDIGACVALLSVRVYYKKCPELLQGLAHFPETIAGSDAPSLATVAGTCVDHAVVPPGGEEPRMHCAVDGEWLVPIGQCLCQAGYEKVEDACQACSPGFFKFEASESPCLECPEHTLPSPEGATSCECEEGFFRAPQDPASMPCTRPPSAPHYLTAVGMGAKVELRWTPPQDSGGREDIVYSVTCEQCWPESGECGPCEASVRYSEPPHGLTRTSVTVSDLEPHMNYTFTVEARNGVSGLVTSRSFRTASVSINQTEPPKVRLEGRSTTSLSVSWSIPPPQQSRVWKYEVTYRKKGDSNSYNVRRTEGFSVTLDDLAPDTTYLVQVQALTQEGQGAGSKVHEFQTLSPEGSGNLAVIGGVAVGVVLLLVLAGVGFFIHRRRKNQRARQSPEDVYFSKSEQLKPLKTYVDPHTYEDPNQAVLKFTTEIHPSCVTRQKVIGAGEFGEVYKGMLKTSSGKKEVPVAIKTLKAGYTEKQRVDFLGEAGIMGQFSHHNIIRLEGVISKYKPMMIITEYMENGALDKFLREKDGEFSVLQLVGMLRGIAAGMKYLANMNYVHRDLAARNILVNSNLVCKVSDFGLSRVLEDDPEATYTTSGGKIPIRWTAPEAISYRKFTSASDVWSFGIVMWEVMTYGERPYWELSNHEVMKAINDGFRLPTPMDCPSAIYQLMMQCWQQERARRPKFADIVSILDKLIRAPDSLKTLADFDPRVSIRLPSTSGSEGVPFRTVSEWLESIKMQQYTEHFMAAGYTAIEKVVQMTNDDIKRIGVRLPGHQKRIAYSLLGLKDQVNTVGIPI
Summary of the method: as §1

T1 sequence (P49841 whole entry): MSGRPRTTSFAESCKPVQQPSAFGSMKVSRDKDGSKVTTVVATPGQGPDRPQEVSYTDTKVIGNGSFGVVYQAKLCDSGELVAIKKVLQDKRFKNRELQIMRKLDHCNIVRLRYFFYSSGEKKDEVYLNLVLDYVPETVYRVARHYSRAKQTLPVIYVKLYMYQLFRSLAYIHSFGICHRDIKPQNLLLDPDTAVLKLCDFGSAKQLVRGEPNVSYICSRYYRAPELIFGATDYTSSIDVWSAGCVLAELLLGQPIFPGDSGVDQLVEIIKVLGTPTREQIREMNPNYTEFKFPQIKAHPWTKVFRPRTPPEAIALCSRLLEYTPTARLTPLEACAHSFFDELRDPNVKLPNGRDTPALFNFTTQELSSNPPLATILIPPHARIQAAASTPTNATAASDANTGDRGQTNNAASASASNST

Compound | inhibition at 0.1 µM (GSK3B) | inhibition at 0.1 µM (BTK) | inhibition at 0.1 µM (MAP3K8) | inhibition at 0.1 µM (CDK8_cyclinC) | inhibition at 0.1 µM (EGFR) | inhibition at 0.1 µM (LIMK1) | inhibition at 0.1 µM (PAK2) | inhibition at 0.1 µM (SGK3) | inhibition at 0.1 µM (DCLK2) | inhibition at 0.1 µM (CDK1_cyclinA2) | inhibition at 0.1 µM (PDGFRA) | inhibition at 0.1 µM (EPHA2)
c1ccc2c(-c3cnn4cc(-c5ccc(N6CCNCC6)cc5)cnc34)ccnc2c1 [LDN-193189, reference compound] | -28.2% | -12.4% | -10.3% | -1.99% | 2.46% | 8.92% | -2.66% | -26.9% | 9.12% | -2.18% | 3.63% | -17.2%
CN1CCc2cccc(c2)Nc2nccc(n2)N2CCCc3cc(ccc32)C1 [OD16] | 1.33% | -12% | -16.9% | -16.6% | -13% | 30.3% | -27.1% | 2.44% | -2.18% | -8.88% | -16% | -21.9%
CN1CCC(=O)NCCNc2ccn3ncc(c3n2)-c2cccc(c2)C1 [OD29] | 3.34% | 7.22% | -5.03% | -9.32% | -8.91% | 1.15% | 7.91% | -21.9% | -15.9% | 23.7% | -9.93% | 10.4%
